Data published in patent US20250215039A1, “NUCLEOSIDES FOR TREATING CANCER” (PRIMEFOUR THERAPEUTICS, INC., priority 2022, published 2025).
Read-outs that look alike come from different tables or passages of the source.

Tested on: cancer cell lines
Test: Cancer cell proliferation activity (CellTiterGlo, 72 h)
Format: cell-based
Conditions: 72 h, 72 h, read-out: IC50 cell proliferation
How it was run: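 Readout is CellTiterGlo luminescence after 72 h compound exposure (0.1% DMSO final), started one day post-seeding, at 37 °C.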

`Nc1nc(F)nc2c1ncn2[C@H]1C[C@H](O)[C@@H](CO)O1` [compound 171, (2R,3S,5R)-5-(6-amino-2-fluoro-9H-purin-9-yl)-2-(hydroxymethyl)tetrahydrofuran-3-ol] gave an IC50 (5637 (bladder)) of 950 nM, an IC50 (CLS439 (bladder)) of 2640 nM and an IC50 (HS729 (muscle)) of 440 nM. It also gave an IC50 (J82 (bladder)) of 1810 nM, an IC50 (JAR (placenta)) of 1600 nM and an IC50 (MT3 (breast)) of 230 nM. The IC50 (PANCI (pancreas)) was 5060 nM, the IC50 (PC3 (prostate)) was 280 nM and the IC50 (RD (muscle)) was 960 nM. The IC50 (T24 (bladder)) was 560 nM, the IC50 (Homo sapiens, 22Rv1, 72 h, 22RV1 (prostate)) was 2890 nM and the IC50 (Homo sapiens, 786-0, 72 h, 786O (kidney)) was 1570 nM. It also gave an IC50 (Homo sapiens, A204, 72 h, A204 (muscle)) of 190 nM, an IC50 (Homo sapiens, A549, 72 h, A549 (lung)) of 1330 nM and an IC50 (Homo sapiens, A673, 72 h, A673 (bone)) of 2530 nM. It also gave an IC50 (Homo sapiens, A2780, 72 h, A2780 (ovary)) of 1670 nM, an IC50 (Homo sapiens, A-375, 72 h, A375 (skin)) of 570 nM and an IC50 (Homo sapiens, A-431, 72 h, A431 (skin)) of 1240 nM. The IC50 (Homo sapiens, ACHN, ACHN (kidney)) was 1050 nM, the IC50 (Homo sapiens, ASPC1, 72 h, ASPC1 (pancreas)) was 320 nM and the IC50 (Homo sapiens, BT-20, 72 h, BT20 (breast)) was 2120 nM. It also gave an IC50 (Homo sapiens, BXPC-3, 72 h, BXPC3 (pancreas)) of 430 nM, an IC50 (Homo sapiens, C-33-A, C33A (endometrial)) of 410 nM and an IC50 (Homo sapiens, CAKI-1, 72 h, CAKI1 (kidney)) of 130 nM. It also gave an IC50 (Homo sapiens, COLO 205, 72 h, COLO205 (colon)) of 420 nM, an IC50 (Homo sapiens, COLO-678, 72 h, COLO678 (colon)) of 630 nM and an IC50 (Homo sapiens, Ca-Ski, CASKI (endometrial)) of 990 nM. For the same compound, the IC50 (Homo sapiens, Caco-2, 72 h, CACO2 (colon)) was 3520 nM, the IC50 (Homo sapiens, Calu-6, 72 h, CALU6 (lung)) was 400 nM and the IC50 (Homo sapiens, DLD-1, 72 h, DLD1 (colon)) was 1030 nM. For the same compound, the IC50 (Homo sapiens, DU-145, 72 h, DU145 (prostate)) was 340 nM, the IC50 (Homo sapiens, EFO-21, 72 h, EFO21 (ovary)) was 460 nM and the IC50 (Homo sapiens, EJ-28, 72 h, EJ28 (bladder)) was 1060 nM. The IC50 (Homo sapiens, Granta-519, 72 h, GRANTA-519 (hematological)) was 680 nM, the IC50 (Homo sapiens, HCT-15, 72 h, HCT15 (colon)) was 2010 nM and the IC50 (Homo sapiens, HCT-116, 72 h, HCT116 (colon)) was 1030 nM. It also gave an IC50 (Homo sapiens, HEK293, 72 h, HEK293 (kidney)) of 3610 nM, an IC50 (Homo sapiens, HL-60, 72 h, HL-60 (hematological)) of 230 nM and an IC50 (Homo sapiens, HT-29, 72 h, HT29 (colon)) of 700 nM. The IC50 (Homo sapiens, HT-1080, 72 h, HT1080 (connective tissue)) was 2790 nM, the IC50 (Homo sapiens, HeLa, HELA (endometrial)) was 310 nM and the IC50 (Homo sapiens, HepG2, 72 h, HEPG2 (liver)) was 2750 nM. The IC50 (Homo sapiens, Hs-578T, HS578T (breast)) was 1640 nM, the IC50 (Homo sapiens, IGROV-1, 72 h, IGROV1 (ovary)) was 1280 nM and the IC50 (Homo sapiens, IMR-90, 72 h, IMR90 (lung)) was 540 nM. It also gave an IC50 (Homo sapiens, JEG-3, 72 h, JEG3 (placenta)) of 2570 nM, an IC50 (Homo sapiens, JIMT-1, 72 h, JIMT1 (breast)) of 180 nM and an IC50 (Homo sapiens, K562, 72 h, K-562 (hematological)) of 5680 nM. The IC50 (Homo sapiens, Kasumi 1, 72 h, KASUMI-1 (hematological)) was 60 nM, the IC50 (Homo sapiens, L-363, 72 h, L-363 (hematological)) was 920 nM and the IC50 (Homo sapiens, LoVo, LOVO (colon)) was 440 nM. The IC50 (Homo sapiens, MCF7, 72 h, MCF7 (breast)) was 3060 nM, the IC50 (Homo sapiens, MDA-MB-231, 72 h, MDAMB231 (breast)) was 160 nM and the IC50 (Homo sapiens, MDA-MB-435, 72 h, MDAMB435 (skin)) was 2470 nM. The IC50 (Homo sapiens, MDA-MB-436, 72 h, MDAMB436 (breast)) was 620 nM, the IC50 (Homo sapiens, MDA-MB-468, 72 h, MDAMB468 (breast)) was 1440 nM and the IC50 (Homo sapiens, MG-63, 72 h, MG63 (bone)) was 1630 nM. The IC50 (Homo sapiens, MHH-ES-1, 72 h, MHHES1 (bone)) was 460 nM, the IC50 (Homo sapiens, MIA PaCa-2, 72 h, MIAPACA2 (pancreas)) was 2950 nM and the IC50 (Homo sapiens, MINO, MINO (hematological)) was 40 nM. It also gave an IC50 (Homo sapiens, MV4-11, 72 h, MV4-11 (hematological)) of 270 nM, an IC50 (Homo sapiens, NCI-H23, 72 h, NCI-H23 (lung)) of 2040 nM and an IC50 (Homo sapiens, NCI-H82, 72 h, NCIH82 (lung)) of 1600 nM. The IC50 (Homo sapiens, NCI-H292, 72 h, NCIH292 (lung)) was 2330 nM, the IC50 (Homo sapiens, NCI-H460, 72 h, NCIH460 (lung)) was 1950 nM and the IC50 (Homo sapiens, OVCAR-3, 72 h, OVCAR3 (ovary)) was 350 nM. It also gave an IC50 (Homo sapiens, OVCAR-4, 72 h, OVCAR4 (ovary)) of 1860 nM, an IC50 (Homo sapiens, PLC-PRF-5, 72 h, PLCPRF5 (liver)) of 2840 nM and an IC50 (Homo sapiens, Panc1005, 72 h, PANC1005 (pancreas)) of 660 nM. The IC50 (Homo sapiens, Ramos, RAMOS (hematological)) was 420 nM, the IC50 (Homo sapiens, SAOS-2, 72 h, SAOS2 (bone)) was 110 nM and the IC50 (Homo sapiens, SF-268, 72 h, SF268 (brain)) was 3020 nM. It also gave an IC50 (Homo sapiens, SF-295, 72 h, SF295 (brain)) of 3580 nM, an IC50 (Homo sapiens, SK-BR-3, 72 h, SKBR3 (breast)) of 140 nM and an IC50 (Homo sapiens, SK-HEP1, 72 h, SKHEP1 (liver)) of 280 nM. For the same compound, the IC50 (Homo sapiens, SK-LMS-1, 72 h, SKLMS1 (uterus)) was 3020 nM, the IC50 (Homo sapiens, SK-MEL-5, 72 h, SKMEL5 (skin; SKMELS [sic] in Table 9E)) was 1970 nM and the IC50 (Homo sapiens, SK-MEL-28, 72 h, SKMEL28 (skin)) was 980 nM. For the same compound, the IC50 (Homo sapiens, SK-N-AS, SKNAS (brain)) was 2550 nM, the IC50 (Homo sapiens, SK-N-SH, SKNSH (brain)) was 2260 nM and the IC50 (Homo sapiens, SK-OV-3, 72 h, SKOV3 (ovary)) was 510 nM. The IC50 (Homo sapiens, SNB-75, 72 h, SNB75 (brain)) was 1470 nM, the IC50 (Homo sapiens, SU-DHL10, 72 h, SU-DHL-10 (hematological)) was 730 nM and the IC50 (Homo sapiens, SU-DHL-6, 72 h, SU-DHL-6 (hematological)) was 980 nM. The IC50 (Homo sapiens, SW-620, 72 h, SW620 (colon)) was 680 nM, the IC50 (Homo sapiens, TE-671, 72 h, TE671 (muscle)) was 780 nM and the IC50 (Homo sapiens, THP-1, 72 h, THP-1 (hematological)) was 130 nM. The IC50 (Homo sapiens, U2OS, U20S (bone; U2OS in Table 9E)) was 960 nM, the IC50 (Homo sapiens, U-87 MG, U87MG (brain)) was 620 nM and the IC50 (Homo sapiens, UMUC3, 72 h, UMUC3 (bladder)) was 970 nM. For the same compound, the IC50 (Homo sapiens, UO-31, 72 h, UO31 (kidney)) was 420 nM, the IC50 (Homo sapiens, WSU-NHL, WSU-NHL (hematological)) was 340 nM and the IC50 (NCI-H358M, NCIH358M (lung)) was 60 nM. It also gave an IC50 (PBMC, PBMC (hematological)) of 150 nM and an IC50 (RD-ES, RDES (bone)) of 820 nM.
